# Source: paper PMC12040169 (PLOS Biology, 2025)
# Assay: in vitro
# Conditions: human, hela cells, % viability
row,Compound,"viability at 28.5 h, 10 µM"
1,Cc1cc(C)c2c(n1)oc1c(Cl)ncnc12 [CBK008822],93%
2,CCOC(=O)NC(Nc1nc2ccccc2s1)(C(F)(F)F)C(F)(F)F [CBK008913],93.6%
3,CN1C(=S)SC(C)(N(O)C(=O)NC2CCCCC2)C1(C)C (stereo not drawn) [CBK008916],110%
4,COc1ccc(NC(=O)CSc2nsc(SCC(=O)Nc3ccc(OC)cc3)n2)cc1 [CBK008918],92.5%
5,CCC1(C)CC(C(N)=S)CCO1 (stereo not drawn) [CBK008954],97%
6,CC12CN3CC(C)(CN(C1)C3c1cccc([N+](=O)[O-])c1)C2=O (stereo not drawn) [CBK009030],88.9%
7,O=C(c1ccc2ccccc2c1)C12CN3CN(CN(C3)C1)C2 [CBK009031],89.1%
8,CCCCOc1ccc(-c2cn(CC(N)=O)cn2)cc1 [CBK009035],110%
9,Cc1onc(-c2ccccc2)c1-c1n[nH]c(=S)o1 [CBK009044],76.7%
10,CN1CCCCC/C1=N/C(=S)CN1CCCC1=S [CBK009052],96.3%
11,COC(=O)[C@H]1O[C@H](c2ccccc2)[C@@H]2C(=O)N(C)C(=O)[C@@H]21 [CBK009058],87.6%
12,CC(C)=NNC(=O)CSc1nc(N2CCOCC2)c2ccccc2n1 [CBK009114],85.2%
13,CC1=NC(O)(C(F)(F)F)C(c2ccccc2)S1 (stereo not drawn) [CBK009121],87.8%
14,COC(=O)CC1CCC(NC(=O)C(F)(F)F)CC1 (stereo not drawn) [CBK009129],97.4%
15,CCN(CC)c1nc(Cl)c(C#N)c2c1CN(C)CC2 [CBK009140],99.2%
16,OCCN(CCO)c1ccccc1N(CCO)CCO [CBK009141],85.7%
17,O=C1NC(CCSC2=NCN=N2)Oc2ccccc21 (stereo not drawn) [CBK009148],107%
18,Cn1sc(=O)c2cc(S(=O)(=O)NC3CC3)ccc21 [CBK009163],86%
19,COCCCNC(=O)c1cccs1 [CBK009164],91.8%
20,CC1(C)Cc2c(c(-c3ccco3)nc3n[nH]c(N)c23)CO1 [CBK009252],84.3%
21,COC(=O)c1cnc(Sc2ccc(Cl)cc2)nc1C(F)(F)F [CBK009299],95.9%
22,CCCCC(=O)NC(Nc1cc(C)ccn1)(C(F)(F)F)C(F)(F)F [CBK009331],79.6%
23,N#Cc1c(O)nsc1Nc1ccc(Cl)cc1 [CBK009446],94.9%
24,Cc1nn(Cc2nnn(CC(=O)O)n2)c(C)c1Br [CBK009457],101%
25,COC(=O)c1sc(N2CCCC2)c(S(=O)(=O)C(C)C)c1N [CBK009463],87.9%

row,Compound,"viability at 28.5 h, 10 µM"
1,C=C1S/C(=N\c2cc(Cl)cc(Cl)c2)NC1(CC)CC [CBK009484],109%
2,CCOC(=O)C1=CC2C(=NC3=C2CCCC3)C=C1 (stereo not drawn) [CBK009652],74.6%
3,CCCC1C2C=CC(C2)C1/C=N/O (stereo not drawn) [CBK009671],83.4%
4,CCc1oc2ccc(Cl)cc2c1C(=O)CCN1CCCCC1 [CBK009675C],99.1%
5,CN1CCCc2c1nc1ccc(Br)cc1c2N [CBK009692G],58.9%
6,NC(=S)N/N=C/c1c[nH]nc1-c1ccccc1 [CBK009705],96.5%
7,CC(C)(C)/N=C1/SCC(C)(/C=N\O)S1 (stereo not drawn) [CBK009726],98.7%
8,CN(C)CCOC(=O)c1ccc2[nH]c3c(c2c1)CSCC3 [CBK009731C],95.8%
9,NC(=O)c1ccc(C#Cc2ccccc2)o1 [CBK009809],94.8%
10,Nc1nnc(C(=O)c2cc(Br)ccc2N)s1 [CBK009811],102%
11,C[N+](C)(C)C1=C([O-])c2ccccc2C1=O [CBK009824],92.7%
12,Nc1nonc1-c1nc2ccccc2o1 [CBK009829],91%
13,CCCCNCCOC1CCC[C@@H]1Cl (stereo partly drawn) [CBK009839],97.7%
14,CCN(CC)CCOC(=O)C1(c2ccccc2)CCOc2ccccc21 (stereo not drawn) [CBK009850C],95.6%
15,CC(=O)Nc1cc(NC(C)=O)c(O)c(C(=O)O)c1 [CBK009871],88.6%
16,COc1ccccc1C(CN)C1CCCCC1 (stereo not drawn) [CBK009878],99.7%
17,CC1(C)CC(=O)N(C2CCCCC2)C(=O)C1C#N (stereo not drawn) [CBK009894],107%
18,COc1ccccc1CC(c1ccccc1)C1CN(C)CCO1 (stereo not drawn) [CBK009925C],116%
19,O=C(Oc1n[nH]c2ccccc12)c1ccc(Cl)cc1 [CBK009976],100%
20,N#CC(c1ccc(Br)cc1)n1ccnc1 (stereo not drawn) [CBK009985],85.6%
21,CN(C)CCC(O)(c1ccccc1)c1cc2c(cc1Cl)CCC2 (stereo not drawn) [CBK010000C],99.5%
22,CCn1cnc2c1CCC(CN/C(=N/C(=O)c1ccccc1)NC)C2 (stereo not drawn) [CBK010036],103%
23,CCn1cnc2c1CC/C(=N\O)C2 [CBK010044],80.6%
24,CC(C)NC(=S)N1CC[C@@]2(NC(N)=O)N=C(N)O[C@H]2C1 [CBK010049],93.1%
25,CCN(CC)CCn1c(-c2ccccc2)c(OCCO)c2ccccc2c1=O [CBK010078],96.9%

row,Compound,"viability at 28.5 h, 10 µM"
1,CCOc1ccc(N)cc1S(N)(=O)=O [CBK010112],93.2%
2,CN(C)CCC1OC(=O)N(c2ccccc2)C1=O (stereo not drawn) [CBK010134C],107%
3,Nc1ccc2c(c1)/C(=C/c1c[nH]c3ncccc13)C(=O)N2 [CBK010155T],103%
4,CC(=O)C1=C(C)N2C(=Nc3ccccc3C2(C)C)S1 [CBK010180C],85.5%
5,CCCN[C@@H]1CCc2cc(CNC(=O)c3ccc(C#N)cc3)ccc2C1 [CBK010211C],101%
6,CC(=O)NCC1CC(c2ccc(C3=CCN(C(C)=O)CC3)cc2)=NO1 (stereo not drawn) [CBK010245],86.8%
7,NC1OC(COC(=O)c2ccccc2)C(OC(=O)c2ccccc2)C1OC(=O)c1ccccc1 (stereo not drawn) [CBK010282],95.3%
8,NC12CC(=O)CC(CC(c3ccccc3)C1)C2 (stereo not drawn) [CBK010323C],114%
9,CCCCCCSc1ccc(C(=O)CCCN2CCOCC2)cc1 [CBK010344],116%
10,COc1cccc(N2CCN(CCCOc3ccc(F)cc3)CC2)n1 [CBK010355F],94.6%
11,CC1CCN(c2ccc(C(=O)CCCO)cc2)CC1 [CBK010358],91.8%
12,CC(=O)NCC1CC(N2CCSCC2)=NO1 (stereo not drawn) [CBK010367],85%
13,CC(=O)NCC1CC(c2ccc(OC(C)=O)c(Cl)n2)=NO1 (stereo not drawn) [CBK010396],88.8%
14,N#Cc1cn(Cc2ccco2)c(=O)[nH]c1=O [CBK010407],101%
15,COc1cc(C2=NS(=O)(=O)NC3=C2CCCC3)cc(OC)c1OC [CBK010423],90.3%
16,CN(C(=O)c1ccccc1)[C@]1(C)C2CC(C[C@@H]2O)C1(C)C (stereo partly drawn) [CBK010498],102%
17,CN(C)[C@H]1CCCC[C@@H]1OC(=O)c1ccc(C(F)(F)F)cc1 [CBK010550F],90.1%
18,C/C(=N\O)c1oc2ccccc2c(=O)c1O [CBK010642],98.6%
19,C1=NC2C(COCc3ccccc3)CCC2N1c1ccccc1 (stereo not drawn) [CBK010679],107%
20,CCN(CC)CCNC(=O)c1cc(=O)c2ccccc2o1 [CBK010691],114%
21,CCNc1cccnc1N1CCN(C(=O)CCC(=O)c2ccc(NS(C)(=O)=O)cc2)CC1 [CBK010701],98.2%
22,COc1ccc2c(c1)c(C(NCc1cccc(C(F)(F)F)c1)C(N)=O)nn2Cc1ccccc1 (stereo not drawn) [CBK010715],100%
23,CC(C)NC(=S)NC(=O)C1CCC1 [CBK010718],86.2%
24,CCc1ccc(C(=O)c2ccccc2C(=O)O)cc1 [CBK010776],93.7%
25,CNc1ccc(OC(=O)c2ccco2)cc1 [CBK010779],88.1%

row,Compound,"viability at 28.5 h, 10 µM"
1,Cc1c(C(=O)N2CCOCC2)sc2nc(-c3ccc(Cl)cc3)nn12 [CBK010863],91.4%
2,N#CC1CCC(CNC(=O)c2sc3ccccc3c2Cl)CC1 (stereo not drawn) [CBK010864],106%
3,Cc1cc(NC(=O)c2cc(Cl)sc2Cl)no1 [CBK010872],84.4%
4,O=C(O)CCCc1nc(-c2ccccn2)no1 [CBK010880],94.8%
5,COc1ccc2c(c1)CCC1CN(C)N=C21 (stereo not drawn) [CBK010890],100%
6,NC(=O)c1ccsc1NC(=O)C(F)(F)F [CBK010915],96.4%
7,O=C(O)CCCc1ccc2sc3ccccc3c2c1 [CBK010971],84.8%
8,Cn1c(Cc2nn(C)c(=O)c3ccccc23)nnc1SCC(=O)C(C)(C)C [CBK010985],105%
9,CC12CCCC(=O)N1C(CO)C(c1ccccc1)O2 (stereo not drawn) [CBK011013],91.2%
10,CC(C)(C)C(=O)CSc1nnc(Cn2cnc(Cl)c2Cl)o1 [CBK011055],81.2%
11,Cn1nnnc1Sc1cc(=O)n(C)c(=O)n1C [CBK011072],114%
12,c1ccc(-c2nnc(Cn3cncn3)o2)cc1 [CBK011113],88%
13,COc1ccc(CN2C(=O)CS(=O)(=O)CC2=O)cc1OC [CBK011127],86.4%
14,COc1nc(Cl)nc(Oc2ccc(F)cc2)n1 [CBK011279],122%
15,N#Cc1nccnc1N1CCN(Cc2ccc3c(c2)OCO3)CC1 [CBK011284],83.3%
16,O=c1cc2ncc(-c3ccncc3)cn2[nH]1 [CBK011300],98.3%
17,COc1ccc2c(c1)N1CCCN=C1N2C [CBK011358C],90.8%
18,CSCCC(C(=O)O)N1CNC(=S)NC1 (stereo not drawn) [CBK011382],92.3%
19,O=C1CCCCC1SCn1nnc2ccccc21 (stereo not drawn) [CBK011412],94.8%
20,COc1cc(OC)c2c(c1)OCC1CON(C)C21 (stereo not drawn) [CBK011446],95.6%
21,CNc1snc(N2CCOCC2)c1C#N [CBK011453],93%
22,COc1ccc2c(c1OC)C(=O)N1C2SC(C)(C)C1C(=O)O (stereo not drawn) [CBK011479],98.9%
23,O=C(NC1CCCCC1)C1CCC1 [CBK011511],96.5%

# Same assay, conditions: human, hela cells, % viability, bulk resorufin, single well
row,Compound,"viability at 28.5 h, 10 µM"
1,COc1cc(C2OCCNC2C)c(OC)cc1C (stereo not drawn) [CBK010347C],90.7%
